Reference: patent publication US4229204A, “Trifluoromethylphenyl isoxazolyl benzoates” (Monsanto Company, priority 1978, dated 1980)

Key:
Assay type in all cases: in vivo
[1] = tested on: Smartweed; experiment: Post-emergent herbicidal test; conditions: 4 WAT, 11.2 kg/h
Procedure: (§1) The post-emergent tests were conducted as follows:
(§2) The active ingredients are applied in spray form to two or three week old specimens of various plant species. The spray, a solution or wettable powder suspension containing the appropriate rate of active ingredient to give the desired test rate and a surfactant, is applied to the plants.
(§3) The compounds were also tested by utilizing the above procedure on the following plant species: […]

[2] = tested on: Johnsongrass; experiment: Post-emergent herbicidal test; conditions: 4 WAT, 11.2 kg/h
Procedure: as §1, §2, §3

[3] = tested on: Quackgrass; experiment: Post-emergent herbicidal test; conditions: 4 WAT, 11.2 kg/h
Procedure: as §1, §2, §3

[4] = tested on: Cocklebur; experiment: Post-emergent herbicidal test; conditions: 4 WAT, 11.2 kg/h
Procedure: as §1, §2, §3

[5] = tested on: Lambsquarters; experiment: Post-emergent herbicidal test; conditions: 4 WAT, 11.2 kg/h
Procedure: as §1, §2, §3

[6] = tested on: Downy Brome; experiment: Post-emergent herbicidal test; conditions: 4 WAT, 11.2 kg/h
Procedure: as §1, §2, §3

[7] = tested on: Velvetleaf; experiment: Post-emergent herbicidal test; conditions: 4 WAT, 11.2 kg/h
Procedure: as §1, §2, §3

[8] = tested on: Canada Thistle; experiment: Post-emergent herbicidal test; conditions: 4 WAT, 11.2 kg/h
Procedure: as §1, §2, §3

[9] = tested on: Barnyardgrass; experiment: Post-emergent herbicidal test; conditions: 4 WAT, 11.2 kg/h
Procedure: as §1, §2, §3

[10] = tested on: Morningglory; experiment: Post-emergent herbicidal test; conditions: 4 WAT, 11.2 kg/h
Procedure: as §1, §2, §3

[11] = tested on: Yellow Nutsedge; experiment: Post-emergent herbicidal test; conditions: 4 WAT, 11.2 kg/h
Procedure: as §1, §2, §3

[12] = tested on: Wild Buckwheat; experiment: Pre-emergent herbicidal test; conditions: 4 WAT
Procedure: (§4) The pre-emergent test was conducted as follows:
(§5) A good grade of top soil was placed in aluminum pans and compacted to a depth of three-eighths to one-half inch from the top of the pan. On the top of the soil was placed a predetermined number of seeds or vegetative propagules of various plant species which were pressed into the soil surface. The soil required to level fill the pans after seeding or adding vegetative propagules was weighed into a pan. A known amount of the active ingredient applied in a solvent or as a wettable powder and the soil were thoroughly mixed, and used as a cover layer for prepared pans.
(§6) The herbicidal rating was obtained by means of a fixed scale based on the percent injury of each plant species. The ratings are defined as follows: […]

[13] = tested on: Panicum Spp.; experiment: Pre-emergent herbicidal test; conditions: 4 WAT
Procedure: as §4, §5, §6

[14] = tested on: Hemp Sesbania; experiment: Pre-emergent herbicidal test; conditions: 4 WAT
Procedure: as §4, §5, §6

[15] = tested on: Wheat; experiment: Pre-emergent herbicidal test; conditions: 4 WAT
Procedure: as §4, §5, §6

[16] = tested on: Sugarbeet; experiment: Pre-emergent herbicidal test; conditions: 4 WAT
Procedure: as §4, §5, §6

[17] = tested on: Sorghum; experiment: Pre-emergent herbicidal test; conditions: 4 WAT
Procedure: as §4, §5, §6

[18] = tested on: Soybean; experiment: Pre-emergent herbicidal test; conditions: 4 WAT
Procedure: as §4, §5, §6

[19] = tested on: Crabgrass; experiment: Pre-emergent herbicidal test; conditions: 4 WAT
Procedure: as §4, §5, §6

[20] = tested on: Rice; experiment: Pre-emergent herbicidal test; conditions: 4 WAT
Procedure: as §4, §5, §6

[21] = tested on: Smartweed; experiment: Pre-emergent herbicidal test; conditions: 4 WAT
Procedure: as §4, §5, §6, §3

[22] = tested on: Johnsongrass; experiment: Pre-emergent herbicidal test; conditions: 4 WAT, 11.2 kg/h
Procedure: as §4, §5, §6, §3

[23] = tested on: Quackgrass; experiment: Pre-emergent herbicidal test; conditions: 4 WAT, 11.2 kg/h
Procedure: as §4, §5, §6, §3

[24] = tested on: Cocklebur; experiment: Pre-emergent herbicidal test; conditions: 4 WAT
Procedure: as §4, §5, §6, §3

[25] = tested on: Lambsquarters; experiment: Pre-emergent herbicidal test; conditions: 4 WAT
Procedure: as §4, §5, §6, §3

[26] = tested on: Downy Brome; experiment: Pre-emergent herbicidal test; conditions: 4 WAT
Procedure: as §4, §5, §6, §3

[27] = tested on: Velvetleaf; experiment: Pre-emergent herbicidal test; conditions: 4 WAT
Procedure: as §4, §5, §6, §3

[28] = tested on: Canada Thistle; experiment: Pre-emergent herbicidal test; conditions: 4 WAT, 11.2 kg/h
Procedure: as §4, §5, §6, §3

[29] = tested on: Barnyardgrass; experiment: Pre-emergent herbicidal test; conditions: 4 WAT
Procedure: as §4, §5, §6, §3

[30] = tested on: Morningglory; experiment: Pre-emergent herbicidal test; conditions: 4 WAT
Procedure: as §4, §5, §6, §3

[31] = tested on: Yellow Nutsedge; experiment: Pre-emergent herbicidal test; conditions: 4 WAT, 11.2 kg/h
Procedure: as §4, §5, §6, §3
Also: ranges in brackets are in %.

Question: Which herbicidal rating [1] does the source give for `O=C(O)c1ccccc1-c1cc(-c2cccc(C(F)(F)F)c2)no1` [Example 11, 2-[3-(3-Trifluoromethylphenyl)-5-Isoxazolyl]Benzoic Acid] here?
Answer: 2 (50-74)

Question: And the herbicidal rating [2]?
Answer: 1 (25-49)

Question: What about the herbicidal rating [3] of the same compound?
Answer: 0 (0-24)

Question: And the herbicidal rating [4]?
Answer: 1 (25-49)

Question: And the herbicidal rating [5]?
Answer: 2 (50-74)

Question: And the herbicidal rating [6]?
Answer: 2 (50-74)

Question: What about the herbicidal rating [7] of the same compound?
Answer: 1 (25-49)

Question: What about the herbicidal rating [8] of the same compound?
Answer: 1 (25-49)

Question: What about the herbicidal rating [9] of the same compound?
Answer: 2 (50-74)

Question: And the herbicidal rating [10]?
Answer: 1 (25-49)

Question: And the herbicidal rating [11]?
Answer: 1 (25-49)

Question: And the herbicidal rating ([12]; 1.12 kg/h)?
Answer: 2 (50-74)

Question: And the herbicidal rating ([12]; 5.60 kg/h)?
Answer: 3 (75-100)

Question: What about the herbicidal rating ([13]; 1.12 kg/h) of the same compound?
Answer: 2 (50-74)

Question: And the herbicidal rating ([13]; 5.60 kg/h)?
Answer: 3 (75-100)

Question: And the herbicidal rating ([14]; 1.12 kg/h)?
Answer: 3 (75-100)

Question: What about the herbicidal rating ([14]; 5.60 kg/h) of the same compound?
Answer: 2 (50-74)

Question: And the herbicidal rating ([15]; 1.12 kg/h)?
Answer: 0 (0-24)

Question: What about the herbicidal rating ([15]; 5.60 kg/h) of the same compound?
Answer: 1 (25-49)

Question: What about the herbicidal rating ([16]; 1.12 kg/h) of the same compound?
Answer: 2 (50-74)

Question: What about the herbicidal rating ([16]; 5.60 kg/h) of the same compound?
Answer: 2 (50-74)

Question: And the herbicidal rating ([17]; 1.12 kg/h)?
Answer: 1 (25-49)

Question: And the herbicidal rating ([17]; 5.60 kg/h)?
Answer: 3 (75-100)

Question: And the herbicidal rating ([18]; 1.12 kg/h)?
Answer: 3 (75-100)

Question: And the herbicidal rating ([18]; 5.60 kg/h)?
Answer: 3 (75-100)

Question: And the herbicidal rating ([19]; 1.12 kg/h)?
Answer: 2 (50-74)

Question: And the herbicidal rating ([19]; 5.60 kg/h)?
Answer: 3 (75-100)

Question: What about the herbicidal rating ([20]; 1.12 kg/h) of the same compound?
Answer: 3 (75-100)

Question: What about the herbicidal rating ([20]; 5.60 kg/h) of the same compound?
Answer: 3 (75-100)

Question: What about the herbicidal rating ([21]; 1.12 kg/h) of the same compound?
Answer: 2 (50-74)

Question: What about the herbicidal rating ([21]; 5.60 kg/h) of the same compound?
Answer: 3 (75-100)

Question: And the herbicidal rating ([21]; 11.2 kg/h)?
Answer: 3 (75-100)

Question: And the herbicidal rating [22]?
Answer: 0 (0-24)

Question: And the herbicidal rating [23]?
Answer: 3 (75-100)

Question: And the herbicidal rating ([24]; 1.12 kg/h)?
Answer: 0 (0-24)

Question: And the herbicidal rating ([24]; 5.60 kg/h)?
Answer: 1 (25-49)

Question: What about the herbicidal rating ([24]; 11.2 kg/h) of the same compound?
Answer: 3 (75-100)

Question: And the herbicidal rating ([25]; 1.12 kg/h)?
Answer: 2 (50-74)

Question: What about the herbicidal rating ([25]; 5.60 kg/h) of the same compound?
Answer: 3 (75-100)

Question: And the herbicidal rating ([25]; 11.2 kg/h)?
Answer: 2 (50-74)

Question: And the herbicidal rating ([26]; 1.12 kg/h)?
Answer: 2 (50-74)

Question: What about the herbicidal rating ([26]; 5.60 kg/h) of the same compound?
Answer: 2 (50-74)

Question: What about the herbicidal rating ([26]; 11.2 kg/h) of the same compound?
Answer: 3 (75-100)

Question: And the herbicidal rating ([27]; 1.12 kg/h)?
Answer: 1 (25-49)

Question: And the herbicidal rating ([27]; 5.60 kg/h)?
Answer: 2 (50-74)

Question: What about the herbicidal rating ([27]; 11.2 kg/h) of the same compound?
Answer: 3 (75-100)

Question: What about the herbicidal rating [28] of the same compound?
Answer: 3 (75-100)

Question: What about the herbicidal rating ([29]; 1.12 kg/h) of the same compound?
Answer: 3 (75-100)

Question: What about the herbicidal rating ([29]; 5.60 kg/h) of the same compound?
Answer: 2 (50-74)

Question: What about the herbicidal rating ([29]; 11.2 kg/h) of the same compound?
Answer: 3 (75-100)

Question: And the herbicidal rating ([30]; 1.12 kg/h)?
Answer: 1 (25-49)

Question: What about the herbicidal rating ([30]; 5.60 kg/h) of the same compound?
Answer: 2 (50-74)

Question: And the herbicidal rating ([30]; 11.2 kg/h)?
Answer: 2 (50-74)

Question: And the herbicidal rating [31]?
Answer: 1 (25-49)
